Results from patent US8293465B2, “Method for the detection of human immunodeficiency virus envelope (HIV) glycoprotein utilizing carbohydrate binding module (CBM) 20 or 21” (priority 2009, dated 2012).

Tests used:
[1] = molecular target: T1, RoSBD binding to HIV Ag & Ab positive panel (Rhizopus oryzae, UniProt P07683); assay: Competition of HIV-RoSBD binding, ELISA on RoSBD coated plate; conditions: 10 mM competitor, FIG. 6A
T1 construct: made in house; host or cells: E. coli (pET23a)
Method: (§1) Ten millimolar maltoheptaose (G7 glycan) and β-cyclodextrin (βCD) (Sigma-Aldrich, St. Louis, Mo.) were dissolved in PBS plus 5% BSA and mixed with the same volume of HIV Ag & Ab positive panel at 37° C. for 1 hr. After adding the mixture to RoSBD coated plate (100 nM in 0.05 M Tris-Hcl, pH 8) or AnSBD coated plate (100 nM in 0.05 M sodium bicarbonate buffer, pH 9.5) at 37° C. for 1 hr, 100 μL HRP coupled HIV1 recombinant gp120 antigen conjugate (0.05 μg/mL) was used for detection.
(§2) HIV Ag & Ab positive panel was separately mixed with the same volume of 500 nM human IgG1 secondary antibody, 2G12 monoclonal antibody, and 250 nM HIV1 gp140 antigen at 37° C. for 1 hr. After adding the mixture to (a) RoSBD coated (100 nM in 0.05 M Tris-Hcl, pH 8) and (b) AnSBD coated plate (100 nM in 0.05 M sodium bicarbonate buffer, pH 9.5) individually at 37° C. for 1 hr, 100 μL HRP coupled HIV1 recombinant gp120 antigen conjugate (0.05 μg/mL) was used for detection.

[2] = molecular target: T2, AnSBD binding to HIV Ag & Ab positive panel (Aspergillus niger, UniProt P69328); conditions: 10 mM competitor; AnSBD coated plate; FIG. 6B
T2 construct: made in house; host or cells: E. coli (pET15b, printed 'pET15Bb')
Method: as §1, §2

[3] = system: HIV Ag & Ab positive panel (possibly native HIV gp120 antigen glycoprotein); assay: HIV-RoSBD binding analysis, sandwich ELISA on SBD coated plates
Method: At first 100 μL of 100 nM AnSBD/RoSBD were coated on individual well of a 96-well plate (Greiner-Bio One GmbH, Frickenhausen, Germany) in sodium bicarbonate buffer (pH 9.5)/Tris-HCl buffer (pH 8) via 16-hr incubation at 4° C. The plate was washed with PBST [10 mM Phosphate Buffered Saline (pH 7.0) plus 0.05% Tween-20], then 200 μL blocking buffer [0.01 M Phosphate Buffered Saline (pH 7.0) plus 5% BSA] was added to each well and incubated at 37° C. for 2 hr. The blocking buffer was removed and the plate was dried at 25° C. for 1 hr. […] To test the specificity of the SBD binding to HIV, HCV test sample and HCV recombinant antigen (Core+NS3+NS5)-HRP conjugate (0.33 μg/mL) were analyzed following the same protocol in parallel. Finally, the plates were developed by adding 100 μL 3,3′,5,5′-tetramethylbenzidibe (TMB) at 37° C. for […] The absorbance was measured at 450 nm in ELISA reader after the reaction was stopped by addition of 100 μL 2 N H2SO4 in each well. These absorbance values were compiled as a statistical value (Cut off value; COV) and described in terms of cut off index (COI) value. The COV was calculated as the OD value of negative control (Normal Human Serum) plus 0.1 (COV=NC+0.1). The COI value was calculated as the OD value of test sample divided by COV. […]

[4] = Glycan array screening of RoSBD (CFG Core H, version 3.1); assay type: binding; conditions: among 377 glycans; FIG. 1A
Method: RoSBD was produced in E. coli system using pET23a expression vector and purified using amylose resin as previously described. Glycan microarray analyses were conducted by the Consortium for Functional Glycomics, Core H facility. The array contained a total of 377 different natural and synthetic glycans and version 3.1 was used for the analyses reported here. Briefly, RoSBD was diluted to […] in sodium acetate binding buffer (50 mM sodium acetate pH 5.5, 1% BSA and 0.05% Tween-20). Seventy microliters was applied to the printed surface of the array, coverslipped, and incubated at room temperature in a humidified chamber away from light for 1 hr. After the incubation, the coverslip was removed and rinsed four times in TSM buffer [50 mM Tris-HCI (pH 7.5), 10 mM MgCl2, and 0.5 M sucrose] and four times in TSM buffer. Seventy microliters of Anti-RoSBD monoclonal antibody, diluted to 1:200 in PBS binding buffer, was applied to the printed surface of the microarray and incubated in a humidified chamber for 1 hr. Washes were performed as above. To detect binding, the secondary antibody incubation was performed with Alexa488-labeled goat anti-mouse IgG at […] in PBS buffer for one hour in a humidified chamber, followed by wash steps. The binding image was read in a Perkin-Elmer Microarray XL4000 scanner and analyzed using Imagene (V.6) image analysis software. […]

| Molecule | competitive inhibition rate [1] [%] | competitive inhibition rate [2] [%] | specificity of binding, HIV panel versus Anti-HCV mixed titer performance panel ([3]; Anti-HCV panel PHV205-24 in parallel, P<0.0001, FIG. 4B) | maximal COI value of binding ([3]; HIV Ag & Ab positive panel #9144532, COI > 1 is positive, FIG. 4A) | glycan recognition (interaction signal on glycan array) [4] |
| --- | --- | --- | --- | --- | --- |
| OC[C@H]1O[C@@H]2O[C@H]3[C@H](O)[C@@H](O)[C@@H](O[C@H]4[C@H](O)[C@@H](O)[C@@H](O[C@H]5[C@H](O)[C@@H](O)[C@@H](O[C@H]6[C@H](O)[C@@H](O)[C@@H](O[C@H]7[C@H](O)[C@@H](O)[C@@H](O[C@H]8[C@H](O)[C@@H](O)[C@@H](O[C@H]1[C@H](O)[C@H]2O)O[C@@H]8CO)O[C@@H]7CO)O[C@@H]6CO)O[C@@H]5CO)O[C@@H]4CO)O[C@@H]3CO [β-cyclodextrin] | 23.1 | 14.3 |  |  |  |
| maltoheptaose | 24.4 | 45.9 |  |  |  |
| RoSBD: starch binding domain, CBM family 21, derived from Rhizopus oryzae glucoamylase, produced in E. coli (protein) ASIPSSASVQLDSYNYDGSTFSGKIYVKNIAYSKKVTVIYADGSDNWNNNGNTIAASYSAPISGSNYEYWTFSASINGIKEFYIKYEVSGKTYYDNNNSANYQVST |  |  | specific | 2.298 | only Manα(1,2)Manα(1,2)Manα(1,2)Manα(1,3) (No. 187) showed evident interaction signal |
